“And” between values parts separate entries of the source, which are not always exact repeats. Equal entries are not always repeated. Where two headings read alike, the source gives them in different places.
Tests used:
[1] = target: T1, VIM-1 (Pseudomonas aeruginosa, UniProt A0A0F7KYQ8); details: previous studies ref Franceschini et al. (4), cited from earlier work; for Km: read-out: Km VIM-1 (previous study)
T1 construct: The N- and C- terminal residues of the mature enzymes are labelled 26; made in house

[2] = system: VIM-5; design: method as in Garcar et al. (6); details: previous studies ref Garcar et al. (6), cited from earlier work
[3] = target: T2, VIM-2 (Escherichia coli, UniProt Q5U7L7); format: biochemical
T2 construct: His6 (N, cleaved yes); made in house
Description: (§1) The hydrolysis of a representative panel of β-lactam substrates was monitored at their respective absorbance wavelengths. The wavelengths and extinction coefficients used were previously described ([34]). The assays were carried out using 50 mM HEPES buffer (pH 7.2) supplemented with 1 μg/ml bovine serum albumin (BSA), 1 μM ZnSO4, and 0.01% Triton X-100. In the case of VIM-1, C-terminally His6-tagged VIM-1 was used for kinetic analyses. Note that no differences were observed between the activities of untagged VIM-1 and C-terminally His6-tagged VIM-1 for the selected antibiotics (data not shown). The initial rates were obtained from the changes in absorbance at various substrate concentrations. Steady-state kinetic parameters (Km and kcat) were determined by fitting the initial velocity data to the Michaelis-Menten equation using GraphPad Prism 5.01 software (see Table S4 in the supplemental material).

[4] = target: T3, VIM-5 (Pseudomonas aeruginosa, UniProt A0A0F7KYQ8, A128K/E202A/H201L/K257T/S205R); experiment: Steady-state kinetics of β-lactam substrate hydrolysis; format: biochemical; details: for kcat VIM-5 / Km: 50 mM HEPES pH 7.2, apparent for ampicillin and ceftazidime; for Km: read-out: Mean Km ± SD VIM-5
T3 construct: His6 with HRV3C cleavage site (pET-28a) (N, cleaved yes); made in house; host or cells: E. coli BL21(DE3)
Description: as §1

[5] = target: T1, VIM-1; experiment: as above; format: biochemical
Description: as §1

[6] = target: T4, VIM-38 (Pseudomonas aeruginosa, UniProt A0A0F7KYQ8, A128K/A265V/E202A/H201L/K257T/S205R); experiment: as above; format: biochemical; details: 50 mM HEPES pH 7.2, apparent for ampicillin and ceftazidime; for Km: read-out: Mean Km ± SD VIM-38
T4 construct: The N- and C- terminal residues of the mature enzymes are labelled 26; His6 with HRV3C cleavage site (pET-28a) (N, cleaved yes); made in house; host or cells: E. coli BL21(DE3)
Description: as §1

[7] = system: VIM-2; design: method as in Poirel et al. (5); details: previous studies ref Poirel et al. (5), cited from earlier work
[8] = 50 mM HEPES pH 7.2; apparent for ampicillin and ceftazidime
[9] = C-terminally His6-tagged VIM-1; 50 mM HEPES pH 7.2; apparent for ampicillin and ceftazidime

Compound	kcat VIM-1 (previous study) [1] [s⁻¹]	Km [1] [µM]	kcat VIM-5 (previous study) [2] [s⁻¹]	kcat VIM-2 [3, 8] [s⁻¹]	Km ([3]; 50 mM HEPES pH 7.2; apparent for ampicillin and ceftazidime; read-out: Mean Km ± SD VIM-2) [µM]	Km ([3]; read-out: Mean Km ± SD VIM-2; 50 mM HEPES pH 7.2; apparent for ampicillin and ceftazidime) [µM]	kcat VIM-5 [4] [s⁻¹]	Km [4] [µM]	Km ([4]; listed as ampicillin) [µM]	kcat VIM-1 [5, 9]	Km ([5]; C-terminally His6-tagged VIM-1; 50 mM HEPES pH 7.2; apparent for ampicillin and ceftazidime; read-out: Mean Km ± SD VIM-1) [µM]	Km ([5]; read-out: Mean Km ± SD VIM-1; C-terminally His6-tagged VIM-1; 50 mM HEPES pH 7.2; apparent for ampicillin and ceftazidime) [µM]	kcat VIM-38 [6] [s⁻¹]	Km [6] [µM]	Km ([6]; listed as ampicillin) [µM]	kcat VIM-2 (previous study) [7] [s⁻¹]	Km ([7]; read-out: Km VIM-2 (previous study)) [µM]	Km ([2]; read-out: Km VIM-5 (previous study)) [µM]	fold-higher hydrolysis efficiency by VIM-5 than previously reported ([4]; this study versus previously reported ([26])) [fold]
CC1(C)S[C@@H]2[C@H](NC(=O)[C@H](N)c3ccccc3)C(=O)N2[C@H]1C(=O)O [Ampicillin]	37	917	14	180	> 500	> 300	230	> 1000	> 300	122 s⁻¹ and 120 s⁻¹	> 1000	> 300	170	380 ± 80	> 300				
CC(C)(O/N=C(\C(=O)N[C@@H]1C(=O)N2C(C(=O)[O-])=C(C[n+]3ccccc3)CS[C@H]12)c1csc(N)n1)C(=O)O [Ceftazidime]	60	794	0.2	2			4	340 ± 80		3 s⁻¹			4	430 ± 140		89	98	149	10
CC(=O)OCC1=C(C(=O)O)N2C(=O)[C@@H](NC(=O)Cc3cccs3)[C@H]2SC1 [Cephalothin]							200	100 ± 8					120	60 ± 8					
